Where two headings read alike, the source gives them in different places.
Assays:
[1] = Toxicity (mortality, LC50) to mussel plantigrade larvae in the anti-settlement bioassay; format: in vivo, Mytilus galloprovincialis; settings: Mytilus galloprovincialis, in vivo, other: immersion in test media in filtered seawater; mussel plantigrade larvae; read-out: LC50 (median lethal dose)
Experimental: (§1) The 19 xanthone derivatives were screened for anti-settlement activity toward M. galloprovincialis plantigrade larvae. Samples of M. galloprovincialis juveniles were collected from mussel beds during low tides in the intertidal zone of Memória beach, Matosinhos, Portugal (41°13′59″ N; 8°43′28″ W). Mussel plantigrade larvae (0.5–2 mm) were sorted in a binocular magnifier (Olympus SZX2-ILLT, Tokyo, Japan) and kept in filtered seawater until bioassays preparation. […] Five competent larvae were included per well and four well replicates per condition. Stock solutions (50 mM) in DMSO were used to prepare test media in filtered seawater (0.1%). Negative and positive controls were used, namely DMSO (0.1%) and CuSO4 (5 μM) as an efficient antifouling agent. After exposure, the anti-settlement bioactivity was determined by the observation of efficiently attached plantigrade larvae considering the existence/absence of produced byssal threads for each test condition. Compounds producing more than 50% of settlement inhibition at 50 µM were selected for antifouling effectiveness (EC50) and toxicity (LC50 and therapeutic index) bioassays, according to previously validated experimental conditions.
(§2) Therapeutic ratios (LC50/EC50) were used to evaluate the effectiveness versus toxicity of bioactive compounds. For the differential proteome analysis, non-parametric Kruskall-Wallis (KW) and Mann Whitney (MW) tests were utilized to report protein abundance differences between treatments in MultiExperiment Viewer (MeV) version 4.9 (The Institute for Genomic Research (TIGR), La Jolla, CA, USA) at a confidence level of 95% [34]. The hierarchical clustering of proteins was made using Pearson correlation and average linkage method.

[2] = target: T1, Electrophorus electric AChE Type V-S (Electrophorus electricus, UniProt O42275); test: In vitro determination of acetylcholinesterase (AChE) inhibition activity; format: biochemical; settings: for AChE inhibition compared to control: 50 µM; for dose-response of AChE activity: Figure 4b
T1 construct: purchased SIGMA C2888
T1 sequence (O42275 24-633): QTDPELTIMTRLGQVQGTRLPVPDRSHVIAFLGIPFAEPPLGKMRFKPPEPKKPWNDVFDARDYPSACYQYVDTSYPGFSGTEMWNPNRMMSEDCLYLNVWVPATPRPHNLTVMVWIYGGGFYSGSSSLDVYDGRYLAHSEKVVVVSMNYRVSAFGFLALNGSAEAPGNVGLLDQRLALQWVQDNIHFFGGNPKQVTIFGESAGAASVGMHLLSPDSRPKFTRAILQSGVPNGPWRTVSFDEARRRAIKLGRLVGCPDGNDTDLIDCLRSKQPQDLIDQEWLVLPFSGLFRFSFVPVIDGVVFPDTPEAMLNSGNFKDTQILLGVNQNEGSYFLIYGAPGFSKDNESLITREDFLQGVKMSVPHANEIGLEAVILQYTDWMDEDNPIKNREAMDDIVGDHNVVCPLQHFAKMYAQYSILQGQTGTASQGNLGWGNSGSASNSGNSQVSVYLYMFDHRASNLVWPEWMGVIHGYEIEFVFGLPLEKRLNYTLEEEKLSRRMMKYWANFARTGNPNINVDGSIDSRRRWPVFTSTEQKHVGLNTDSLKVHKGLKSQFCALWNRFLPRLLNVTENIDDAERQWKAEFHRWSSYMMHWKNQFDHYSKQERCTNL
Experimental: AChE inhibition was evaluated as a neurotransmission biomarker for the 19 compounds using Electrophorus electric AChE Type V-S (SIGMA C2888, E.C. 3.1.1.7), according to Ellman et al. (1961) and modified by Almeida et al. (2015). Briefly, 250 μL of the reaction solution containing 30 mL of phosphate buffer, 1mL of the reagent dithiobisnitrobenzoate (DTNB) at 10 mM (acid dithiobisnitrobenzoate and sodium hydrogen carbonate in phosphate buffer), and 200 μL of […] 0.075 M was added to 50 μL of pure AChE (0.25 U.mL^−1) and each test compound at final concentration of 30 μg mL^−1 in quadruplicate. AChE activity was followed at 412 nm during 5 min at 25 °C. Negative and positive controls were included, namely ultra-pure water and eserine (20 mM), respectively, and a blank containing 50 μL of phosphate buffer.

[3] = system: Mytilus galloprovincialis plantigrade larvae; test: M. galloprovincialis larvae anti-settlement bioassay; format: in vivo; settings: for EC50: dose-response, read-out: EC50 (concentration that inhibited 50% of larval settlement); for inhibition at 50 µM: initial screening bioassay at 50 µM, 15 h
Experimental: as §1, §2

[4] = system: Artemia salina nauplii; test: Brine shrimp (Artemia salina) lethality test; format: in vivo; settings: 25 and 50 µM, 48 h of exposure
Experimental: Ecotoxicity to non-target species was assessed using the brine shrimp (Artemia salina) lethality test standard protocol. Artemia cysts were cultivated and newly hatched nauplii I were used for the exposure to the most promising antifouling compounds at 50 and 25 µM. The bioassay was performed in 96-well microplates with eight replicates per condition and 15–20 nauplii per well. Positive (K2Cr2O7 at 13.6 µM) and negative (DMSO) controls were included. After 48 h of exposure, the percentage of nauplii mortality was determined.

[5] = system: Agaricus bisporus tyrosinase; test: In vitro determination of tyrosinase inhibition activity; format: biochemical
Experimental: Tyrosinase inhibition assays were conducted using Agaricus bisporus tyrosinase (EC 1.14.18.1) according to Adhikari et al. with appropriate adaptations. The enzymatic reaction follows the catalytic conversion of L-Dopa to dopaquinone and the formation of dopachrome by measuring the absorbance at 475 nm. Briefly, 50 µL of tyrosinase (25 U.mL^−1) in 50 mM phosphate buffer pH 6.5, adding the defined concentration of compounds in DMSO. The enzymatic activity was initiated by L-dopa (25 mM). Kojic acid was used as positive control and DMSO as negative control.

[6] = system: Mytilus galloprovincialis plantigrade larvae; test: Toxicity (mortality, LC50) to mussel plantigrade larvae in the anti-settlement bioassay; format: in vivo
Experimental: as §1, §2

[7] = system: Mytilus galloprovincialis plantigrade larvae; design: method as in PMID 31669574; settings: at 108 µM, same bioassay conditions; cited from earlier work

SMILES	LC50 at 15 h [1] [µM]	AChE inhibition compared to control [2]	dose-response of AChE activity [2]	EC50 ([3]; Probit regression, 95% CI) [µM]	EC50 [3] [µg/mL]	inhibition at 50 µM [3] [%]	Artemia salina mortality [4] [%]	induction of tyrosinase activity ([5]; 25 μM) [%]	induction of tyrosinase activity ([5]; 200 μM) [%]	inhibition of tyrosinase activity ([5]; 50 µM) [%]	mortality of mussel plantigrade larvae ([6]; at 100 µM) [%]	mortality of mussel plantigrade larvae ([6]; at 500 µM) [%]	mortality of mussel plantigrade larvae [7] [%]
O=c1c2ccccc2oc2c(O)cccc12 [Compound 4, 4-hydroxy-]	> 500	showed AChE inhibition	concentration-dependent modulation of AChE activity	21.5	4.55	70 ± 12.9	> 10						
O=c1c2ccccc2oc2ccc(O)c(O)c12 [Compound 5, 1,2-dihydroxy-]	> 500	showed AChE inhibition	concentration-dependent modulation of AChE activity	15.5	3.52	70 ± 12.9	> 10						
O=c1c2ccccc2oc2c(O)c(O)ccc12 [Compound 7, 3,4-dihydroxy-]	> 500			11.5	2.63	65 ± 17.1	< 10	11.7	62.5				
O=c1c2ccc(O)cc2oc2cc(O)ccc12 [Compound 8, 3,6-dihydroxy-]										34			
CC1(C)CCc2cc3c(=O)c4ccccc4oc3c(O)c2O1 [Compound 10, 4-dihydro-12-hydroxy-2,2-dimethyl-2H,6H-pyrano [3,2-b]xanthone]	> 500			4.6	1.36	75 ± 9.6	< 10				15		
CCCOc1ccc(NCCc2ccc3c(c2)OCO3)c2c(=O)c3ccccc3sc12 [Compound 15, 1-[11]-4-propoxy-9H-thioxanthen-9-one]	> 500			28.6	12.4	71.2 ± 10.9	> 10						
CCCOc1ccc(N2CCCCC2)c2c(=O)c3ccccc3sc12 [Compound 17, 1-(piperidin-1-yl)-4-propoxy-9H-thioxanthen-9-one]	> 500			3.53	1.25	71.7 ± 5	> 10					17	
N#Cc1c(-c2ccc(Cl)cc2)[nH]c(C(F)(F)F)c1Br [ECONEA]													50

From publication PMC7463931, “Structure-Antifouling Activity Relationship and Molecular Targets of Bio-Inspired(thio)xanthones” (Biomolecules, 2020)
